The subject of test [1] is RF strain of HIV-1 in CEM-SS cells. As to the kind of experiment: HIV-1 cell protection assay (XTT dye reduction). Type of test: cell-based. Summed up:
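CEM-SS cells infected at an moi giving about 90% kill (mock-infected for toxicity) and exposed to half-log compound dilutions for six days; XTT/PMS added for 4 h, formazan read at 450 nm. EC50 as protection to 50% of uninfected control, CC50 from uninfected cells, therapeutic index as CC50/EC50.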

For test [2], the target named is T1, Full-length wild type HIV-1 integrase (SF1) (Human immunodeficiency virus type 1 group M subtype B, UniProt P04585).
T1 construct: made in house; host or cells: E. coli BL21 (DE3)
In words: Integrase strand-transfer scintillation proximity assay. It counts as biochemical. Summed up: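 Strand transfer used E. coli-expressed full-length HIV-1 integrase (aa 1–289). The donor was biotinylated, preprocessed U5 LTR viral ds-DNA bound to streptavidin SPA beads, with [3H]-thymidine-labelled host ds-DNA as target. Integration was detected by scintillation proximity.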
For orientation: Scintillation proximity formats need no separation of bound from free tracer.

Where [3] appears, read: Human immunodeficiency virus 1, CEM-SS, 144 h.
Setting [4] is: integrase strand-transfer SPA, read-out: IC50.

Structures are written as SMILES. Like-named read-outs stand apart in the source and are kept apart here.

As for `CN(O)C(=O)c1cc2c(S(=O)(=O)N3CCC[C@H]3C(N)=O)cn(Cc3ccc(F)cc3F)c2cn1` [Example 42, 3-{[(2S)-2-(aminocarbonyl)pyrrolidin-1-yl]sulfonyl)-1-(2,4-difluorobenzyl)-N-hydroxy-N-methyl-1H-pyrrolo[2,3-c]pyridine-5-carboxamide], the EC50 – broadly, the midpoint of the concentration-response curve – in test [1] (Human immunodeficiency virus 1, 144 h, HIV-1 RF, CEM-SS cells, XTT, six days, read-out: EC50) was 6300 nM. Half-maximal inhibition in test [2] (IC50) required 1050 nM.
`CN(O)C(=O)c1cc2c(C(=O)NC[C@@H]3CCCO3)cn(Cc3ccc(F)cc3)c2cn1` [Example 43, 1-(4-fluorobenzyl)-N5-hydroxy-N5-methyl-N3-[(2S)-tetrahydrofuran-2-ylmethyl]-1H-pyrrolo[2,3-c]pyridine-3,5-dicarboxamide] returned an EC50 in test [1] (setting [3]) of 80 nM. Also, the IC50 (usually the concentration at which inhibition is half-maximal) in test [2] (setting [4]) is 221 nM.
As to `CC(C)NC(=O)c1cn(Cc2ccc(F)cc2)c2cnc(C(=O)N(C)O)cc12` [Example 44, 1-(4-fluorobenzyl)-N5-hydroxy-N3-isopropyl-N5-methyl-1H-pyrrolo[2,3-c]pyridine-3,5-dicarboxamide], the half-maximal effective concentration (EC50) in test [1] (setting [3]) was 70 nM. The concentration for half-maximal inhibition (IC50) in test [2] (setting [4]) worked out at 205 nM.
As for `CN(O)C(=O)c1cc2c(C(=O)NCC(F)F)cn(Cc3ccc(F)cc3)c2cn1` [Example 45, N3-(2,2-difluoroethyl)-1-(4-fluorobenzyl)-N5-hydroxy-N5-methyl-1H-pyrrolo[2,3-c]pyridine-3,5-dicarboxamide], the EC50 in test [1] (setting [3]) came out at 39 nM. In test [2] (setting [4]), the IC50 amounted to 243 nM.
In the same order, the values of `CONC(=O)c1cc2c(C(=O)N3CCC[C@@H]3CO)cn(Cc3ccc(F)cc3)c2cn1` [Example 46] are 56 nM and 895 nM.
Take `CONC(=O)c1cc2c(C(=O)NC(C)C)cn(Cc3ccc(F)cc3)c2cn1` [Example 47, 1-(4-fluorobenzyl)-N3-isopropyl-N5-methoxy-1H-pyrrolo[2,3-c]pyridine-3,5-dicarboxamide]: a half-maximal response in test [1] (setting [3]) (EC50) required 32 nM. For the same molecule, the IC50 in test [2] (setting [4]) turned out to be 249 nM.
In the same order, the values of `CONC(=O)c1cc2c(C(=O)NCC(F)F)cn(Cc3ccc(F)cc3)c2cn1` [Example 48, N3-(2,2-difluoroethyl)-1-(4-fluorobenzyl)-N5-methoxy-1H-pyrrolo[2,3-c]pyridine-3,5-dicarboxamide] are 29 nM and 510 nM.

The values above are taken from patent US20090170846A1, “INHIBITORS OF THE HIV INTEGRASE ENZYME” (Pfizer Inc, priority 2005, published 2009).
